Tests used:
[1] = target: T1, COX-1 (Ovis aries, UniProt P05979); assay: COX-1 enzyme assay, PGE2 by LC-MS-MS, single point; format: biochemical; conditions: read-out: CX1 ^f
T1 sequence (P05979 25-600): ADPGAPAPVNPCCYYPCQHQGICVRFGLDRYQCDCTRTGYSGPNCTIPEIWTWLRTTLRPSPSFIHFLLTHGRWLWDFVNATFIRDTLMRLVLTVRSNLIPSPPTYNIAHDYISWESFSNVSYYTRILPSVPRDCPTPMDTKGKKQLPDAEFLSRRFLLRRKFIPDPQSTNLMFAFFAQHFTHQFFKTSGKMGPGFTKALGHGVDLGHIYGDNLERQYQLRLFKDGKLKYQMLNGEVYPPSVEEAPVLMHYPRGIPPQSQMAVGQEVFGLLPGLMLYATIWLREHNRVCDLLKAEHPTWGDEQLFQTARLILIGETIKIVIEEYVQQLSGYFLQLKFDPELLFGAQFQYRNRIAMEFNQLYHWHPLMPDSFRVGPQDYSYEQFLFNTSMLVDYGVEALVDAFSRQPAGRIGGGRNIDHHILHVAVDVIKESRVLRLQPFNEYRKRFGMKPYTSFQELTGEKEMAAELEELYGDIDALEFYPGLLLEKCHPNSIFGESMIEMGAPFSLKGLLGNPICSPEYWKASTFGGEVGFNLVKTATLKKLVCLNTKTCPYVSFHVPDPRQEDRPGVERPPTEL

[2] = target: T2, aromatase (CYP19) (Homo sapiens, UniProt P11511); assay: CYP19 enzyme, dibenzylfluorescein fluorescence assay; format: biochemical
T2 sequence (P11511 1-503): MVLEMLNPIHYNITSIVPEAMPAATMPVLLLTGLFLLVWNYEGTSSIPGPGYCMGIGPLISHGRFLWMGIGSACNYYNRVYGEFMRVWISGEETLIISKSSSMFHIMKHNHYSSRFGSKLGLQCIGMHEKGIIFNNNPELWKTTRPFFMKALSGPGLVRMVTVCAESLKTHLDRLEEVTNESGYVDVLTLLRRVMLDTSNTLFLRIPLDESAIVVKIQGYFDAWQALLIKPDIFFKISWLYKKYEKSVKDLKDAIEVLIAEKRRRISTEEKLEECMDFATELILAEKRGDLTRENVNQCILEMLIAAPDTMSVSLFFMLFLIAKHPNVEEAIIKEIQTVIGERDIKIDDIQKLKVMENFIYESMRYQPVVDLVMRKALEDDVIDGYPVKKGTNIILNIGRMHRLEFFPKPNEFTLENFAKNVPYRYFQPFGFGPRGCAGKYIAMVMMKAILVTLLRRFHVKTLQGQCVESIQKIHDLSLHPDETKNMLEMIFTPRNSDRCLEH

| inhibition at 10 µg/mL [1] | IC50 [2] | SMILES |
| --- | --- | --- |
| 52% | – | CC(=O)OC[C@H]1OC(O[C@@H]2[C@@H](OCCC(=O)C(C)C)[C@@H](O)[C@H](Oc3c(-c4ccc(O)cc4)oc4cc(O)cc(O)c4c3=O)O[C@H]2C)[C@H](O)[C@@H](O)[C@@H]1O (stereo partly drawn) [compound 1, kaempferol 3-O-[(6‴-O-acetyl-β-D-glucopyranosyl)-(1→4)-3″-O-(4⁗, 4⁗-dimethyl-3-oxo-butyl)-α-L-rhamnopyranoside]] |
| – | 15.5 µM | CC(=O)OC[C@H]1O[C@@H](O[C@@H]2[C@@H](O)[C@@H](O)[C@H](Oc3c(-c4ccc(O)cc4)oc4cc(O)cc(O)c4c3=O)O[C@H]2C)[C@H](O)[C@@H](O)[C@@H]1O [compound 4, multiflorin A] |
